Experiment [1] has as its system TNF production by monocytes. Put plainly: Lipopolysaccharide-Activated Monocyte TNF Production Assay (LPS induced TNF release). The class given is cell-based. Particulars: Homo sapiens, LPS-activated adherent monocytes from PBMCs. How it is done: Lipopolysaccharide-Activated Monocyte TNF Production Assay
Test compounds were evaluated in vitro for the ability to inhibit the production of TNF by monocytes activated with bacterial lipopolysaccharide (LPS). Fresh residual source leukocytes (a byproduct of plateletpheresis) were obtained from a local blood bank, and peripheral blood mononuclear cells (PBMCs) were isolated by density gradient centrifugation on Ficol-Paque Plus (Pharmacia). PBMCs were suspended at 2×10^6/mL in DMEM supplemented to contain 2% FCS, 10 mM, 0.3 mg/mL […], 100 U/mL penicillin G and […] streptomycin sulfate (complete media). Cells were plated into Falcon flat bottom, 96 well culture plates (200 μL/well) and cultured overnight at 37° C. and 6% CO2. Non-adherent cells were removed by washing with 200 μl/well of fresh medium. Wells containing adherent cells (˜70% monocytes) were replenished with 100 μL of fresh medium.
Preparation of Test Compound Stock Solutions
Test compounds were dissolved in […]. Compound stock solutions were prepared to an initial concentration of […]. Stocks were diluted initially to 20-200 μM in complete media. Nine two-fold serial dilutions of each compound were then prepared in complete medium. Treatment of cells with test compounds and activation of TNF production with lipopolysaccharide.
One hundred microliters of each test compound dilution were added to microtiter wells containing adherent monocytes and 100 μL complete medium. Monocytes were cultured with test compounds for 60 min at which time 25 μL of complete medium containing 30 ng/mL lipopolysaccharide from E. coli K532 were added to each well. Cells were cultured an additional 4 hrs. Culture supernatants were then removed and TNF presence in the supernatants was quantified using an ELISA.
Flat bottom, 96 well Corning High Binding ELISA plates were coated overnight (4° C.) with 150 μL/well of 3 μg/mL murine anti-human TNF-α MAb (R&D Systems #MAB210). Wells were then blocked for 1 h at room temperature with 200 μL/well of CaCl2-free ELISA buffer supplemented to contain 20 mg/mL BSA (standard ELISA buffer: […], 150 mM NaCl, 2 mM CaCl2, 0.15 mM thimerosal, pH 7.4). Plates were washed and replenished with 100 μL of test supernatants (diluted 1:3) or standards. Standards consisted of eleven 1.5-fold serial dilutions from a stock of 1 ng/mL recombinant human TNF (R&D Systems). Plates were incubated at room temperature for 1 h on orbital shaker (300 rpm), washed and replenished with 100 μL/well of 0.5 μg/mL goat anti-human TNF-α(R&D systems #AB-210-NA) biotinylated at a 4:1 ratio. Plates were incubated for 40 min, washed and replenished with 100 μL/well of alkaline phosphatase-conjugated streptavidin (Jackson ImmunoResearch #016-050-084) at 0.02 μg/mL. Plates were incubated 30 min, washed and replenished with 200 μL/well of 1 mg/mL of p-nitrophenyl phosphate. After 30 min, plates were read at 405 nm on a Vmax plate reader.
Standard curve data were fit to a second order polynomial and unknown TNF-α concentrations determined from their OD by solving this equation for concentration. TNF concentrations were then plotted vs. test compound concentration using a second order polynomial. This equation was then used to calculate the concentration of test compounds causing a 50% reduction in TNF production.

In experiment [2] the test system is TNF-α secretion by THP1 cells. Briefly: Lipopolysaccharide-Activated THP1 Cell TNF Production Assay (THP-cellular TNF release assay). Particulars: Homo sapiens, THP-1, LPS-activated THP1 cells. In kind it is cell-based. How it is done: Lipopolysaccharide-Activated THP1 Cell TNF Production Assay
THP1 cells are re-suspended in fresh THP1 media (RPMI 1640, 10% heat-inactivated FBS, 1XPGS, 1XNEM, plus 30 μM βME) at a concentration of 1E6/mL. One hundred microliters of cells per well were plated in a polystyrene 96-well tissue culture. One microgram per mL of bacterial LPS is prepared in THP1 media and is transferred to the wells. Test compounds are dissolved in 100% DMSO and are serially diluted 3 fold in a polypropylene 96-well microtiter plate (drug plate). HI control and LO control wells contain only DMSO. One microliter of test compound from the drug plate followed by 10 μL of LPS were transferred to the cell plate. The treated cells are induced to synthesize and secrete TNF-α at 37° C. for 3 h. Forty microliters of conditioned media are transferred to a 96-well polypropylene plate containing 110 μL of ECL buffer (50 mM Tris-HCl pH 8.0, 100 mM NaCl, 0.05% Tween 20, 0.05% NaN3 and 1% FBS) supplemented with 0.44 nM MAB610 monoclonal Ab (R&D Systems), 0.34 nM ruthenylated AF210NA polyclonal Ab (R&D Systems) and 44 μg/mL sheep anti-mouse M280 Dynabeads (Dynal). After a 2 h incubation at room temperature with shaking, the reaction is read on the ECL M8 Instrument (IGEN Inc.). A low voltage is applied to the ruthenylated TNF-α immune complexes, which in the presence of TPA (the active component in Origlo), results in a cyclical redox reaction generating light at […]. The amount of secreted TNF-αin the presence of compound compared with that in the presence of DMSO vehicle alone (HI control) is calculated using the formula: % control (POC)=(cpd−average LO)/(average HI−average LO)*100. Data (consisting of POC and inhibitor concentration in μM) is fitted to a 4-parameter equation (y=A+((B−A)/(1+((x/C)^D))), where A is the minimum y (POC) value, B is the maximum y (POC), C is the x (cpd concentration) at the point of inflection and D is the slope factor) using a Levenburg-Marquardt non-linear regression algorithm.

The source of these data is US7935709B2, “2-quinazolinone compounds and methods of use” (Amgen Inc., priority 2006, dated 2011).

Structures are written as SMILES.

The IC50 is the concentration needed to halve the response being measured.

Take `Cc1ccc(C(=O)NC2CC2)cc1-c1ccc2c(cnc(=O)n2CCN2CCOCC2)c1` [Example 8, N-Cyclopropyl-4-methyl-3-(1-(2-morpholinoethyl)-2-oxo-1,2-dihydroquinazolin-6-yl)benzamide]: in experiment [1], the concentration for half-maximal inhibition (IC50) is not above 25 µM.

`Cc1ccc(C(=O)NC2CC2)cc1-c1ccc2c(cnc(=O)n2-c2ccccc2Cl)c1` [Example 3] came in with an IC50 in experiment [1] not above 25 µM.

In the case of `Cc1ccc(C(=O)NC2CC2)cc1-c1cnc2c(c1)CNC(=O)N2c1ccccc1Cl` [Example 12, 3-(1-(2-chlorophenyl)-2-oxo-1,2,3,4-tetrahydropyrido[2,3-d]pyrimidin-6-yl)-N-cyclopropyl-4-methylbenzamide], the IC50 in experiment [1] was not above 25 µM; in experiment [2], not above 2.5 µM.

Regarding `O=c1ncc2cc(Cl)ccc2n1Cc1ccccc1` [Example 1, 1-Benzyl-6-chloroquinazolin-2-(1H)-one], the half-inhibitory concentration (IC50) is not above 25 µM in experiment [1] and not above 2.5 µM in experiment [2].

Turning to `Cc1ccc(C(=O)NC2CC2)cc1-c1ccc2c(cnc(=O)n2C2CCOCC2)c1` [Example 13, N-cyclopropyl-4-methyl-3-(2-oxo-1-(tetrahydro-2H-pyran-4-yl)-1,2-dihydro-6-quinazolinyl)benzamide], the IC50 in experiment [1] was not above 25 µM.

On to `Cc1ccc(C(=O)NC2CC2)cc1-c1ccc2c(c1)CNC(=O)N2c1ccccc1C` [Example 5, N-Cyclopropyl-4-methyl-3-(2-oxo-1-o-tolyl-1,2,3,4-tetrahydroquinazolin-6-yl)benzamide], for which the IC50 in experiment [1] was not above 25 µM.

Turning to `COc1ccc(CN2Cc3cc(-c4cc(C(=O)NC5CC5)ccc4C)ccc3NC2=O)cc1` [Example 2, 3-(3-(4-Methoxybenzyl)-2-oxo-1,2,3,4-tetrahydroquinazolin-6-yl)-N-cyclopropyl-4-methylbenzamide], the IC50 in experiment [1] was not above 25 µM; in experiment [2], not above 2.5 µM.

As for `Cc1ccncc1-c1ccc2c(c1)CNC(=O)N2c1ccccc1Cl` [Example 4, 1-(2-Chlorophenyl)-6-(4-methylpyridin-3-yl)-3,4-dihydroquinazolin-2(1H)-one], the IC50 was not above 25 µM in experiment [1] and not above 2.5 µM in experiment [2].

For the compound `Cc1ccc(C(=O)NC2CC2)cc1-c1ccc2c(cnc(=O)n2-c2ccccc2C)c1` [Example 6, N-Cyclopropyl-4-methyl-3-(2-oxo-1-o-tolyl-1,2-dihydroquinazolin-6-yl)benzamide], the IC50 in experiment [1] was not above 25 µM.

As to `Cc1ccc(C(=O)NC2CC2)cc1-c1ccc2c(c1)CNC(=O)N2c1ccccc1Cl` [Example 11, 3-(1-(2-chlorophenyl)-2-oxo-1,2,3,4-tetrahydro-6-quinazolinyl)-N-cyclopropyl-4-methylbenzamide], the 50% inhibitory concentration (IC50) in experiment [1] was not above 25 µM.

In experiment [1], `Cc1ccc(C(=O)NC2CC2)cc1-c1ccc2c(cnc(=O)n2C2CCN(C(=O)OC(C)(C)C)CC2)c1` [Example 10, tert-Butyl 4-(6-(5-(cyclopropylcarbamoyl)-2-methylphenyl)-2-oxoquinazolin-1(2H)-yl)piperidine-1-carboxylate] yielded an IC50 not above 25 µM.
